Measured values published in PMC7651855 (ACS nano, 2019).
Bridges are numbered along the chain shown (N, C = ends). Where no end group is shown, it is not given here.

System: C57bl/6 mice
Format: in vivo, mouse
Conditions: n=3; for CNS accumulation of NA-HRP (result in words): biotin-peptide:NA-HRP complex, IP, 24 hours post-injection

| Sequence | NA-delivery to the forebrain (result in words) (peptide-neutravidin-HRP, 10 μg per mouse IP, 24 hours) | CNS accumulation of NA-HRP (result in words) |
| --- | --- | --- |
| SACPLSKGKLCGGG (disulfide 3-11 (inferred)) [TACL08] | increased NA-delivery to the forebrain when compared against controls |  |
| SACHQSQSRMCGGG (disulfide 3-11 (inferred)) [TACL10] |  | trended toward significant CNS accumulation |
| SACSQKNFTHCGGG (disulfide 3-11 (inferred)) [TACL06] |  | trended toward significant CNS accumulation |
